Assay results as given in patent publication US6585982B1, “Treatment of infertility” (NNA/S, priority 1999, dated 2003).

What was measured:
metaphase II oocytes [1] = test: FF-MAS as adjunct to a standard FSH based IVF treatment (GnRH analog Synarel down regulation, ICSI); format: cell-based, human
Excerpt: (§1) The patient underwent down regulation with an GnRH analog, i.e., Synarel (nasal spray, two puffs daily), for at least 14 days (starting in the luteal phase of the previous cycle or Day 1 or 2 in the follicular phase of the current cycle) and ovarian stimulation with recombinant FSH with an average daily dose of 225 IU. At least 3 follicles of 17 mm or more were present at the time of administering hCG, i.e. Profase (10.000 IU, one shot). Follicles were aspirated and metaphase II oocytes were cultured in oocyte culture system containing standard in vitro fertilization (IVF) media (IVF 20 (which is available from Scandinavian IVF Science AB, Gothenburg, Sweden)) supplemented with human serum albumin (0.8%) and FF-MAS (5 μM). All oocytes were cultured under normal conditions at 37° C. in the incubator. Each oocyte was cultured in one well in a four-chamber culture dish as culture media system. […] Preembryos were evaluated for cleavage stage and fragmentation/morphology at 1, 2 and 3 days post ICSI. […] The patient received an estrogen, i.e., Estrofem (6 mg/daily), and a progesterone, i.e., Utrogestan (600 mg/daily, micronized, vaginal suppository), daily to render the endometrium lining the patient uterus responsive and ready for allowing implantation of the transferred eggs. […]

metaphase II oocytes [2] = test: FF-MAS as adjunct to a standard FSH based IVF treatment (GnRH antagonist Cetrorelix protocol, ICSI); format: cell-based, human
Protocol: as §1, with “regulation” for “regulation with an GnRH analog, i.e., Synarel (nasal spray, two puffs daily), for at least 14 days (starting in the luteal phase of the previous cycle or Day 1 or 2 in the follicular phase of the current cycle) and ovarian stimulation”, “225 IU starting on Day 1 or 2 of the current cycle and used a GnRH antagonist, i.e., Cetrorelix (1 mg daily, subcutaneously, one shot), in the current cycle.” for “225 IU.”, “hCG, i.e., Profasi” for “hCG, i.e. Profase”, “progesterone, i.e.” for “progesterone, i.e.,”, “suppository),” for “suppository), daily”

[3] = FF-MAS 5 μM, 0.8% HSA in IVF 20 medium, 4 hours before and 20 hours after ICSI

Measured: results of the IVF procedure compared with the known procedures

CC(C)=CCC[C@@H](C)[C@H]1CC=C2C3=C(CC[C@@]21C)[C@@]1(C)CC[C@H](O)C(C)(C)[C@@H]1CC3 [FF-MAS, 4,4-dimethyl-5α-cholesta-8,14,24-triene-3β-ol]
better results: metaphase II oocytes [1]; [3] | metaphase II oocytes [1]; FF-MAS 20 μM, otherwise procedure of Example 4 | metaphase II oocytes [2]; [3] | metaphase II oocytes [2]; FF-MAS 20 μM, otherwise procedure of Example 3
